Assay results as given in patent publication US20080255177A1, “ANTI-TUMOR ACTIVITY OF CCI-779 IN PAPILLARY RENAL CELL CANCER” (Wyeth, priority 2007, published 2008).
Values joined by “and” are separate entries in the source; they are usually repeats but may differ in a detail not shown here. Equal entries are not always repeated.

Test system: advanced metastatic renal cell carcinoma
Test: Phase III study of CCI-779 (temsirolimus) vs αIFN as first-line therapy
Assay type: in vivo
Conditions: for OS median: first-line, αIFN 3 MU escalating to 18 MU s.c. 3 times/week or CCI-779 25 mg i.v. weekly
Text: In this phase III study, 626 advanced metastatic renal cell carcinoma patients from 26 countries were randomized to αIFN or CCI-779 (temsirolimus) as first-line therapy. This group is a very poor prognosis group of patients with many risk factors for early death. Patients received 3 million units (MU) of αIFN-alone subcutaneously 3 times/week, escalating to 18 MU or 25-mg CCI-779 intravenous infusion weekly.
Eligibility for this study required histologically confirmed, advanced (stage IV or recurrent disease) RCC with no prior systemic therapy for the disease. Subjects with central nervous system metastases, prior anticancer therapy for RCC and prior investigational therapy/agents within 4 weeks of randomization were excluded from the study.
The primary objective of this study was efficacy with a primary endpoint of overall survival. Secondary objectives of this study were safety, health outcomes, and additional efficacy endpoints. The secondary efficacy endpoints of this study were an evaluation of progression-free survival, response rate (complete and partial responses), clinical benefit rate, the duration of overall response, time to treatment failure, and health outcomes measurements. In addition, subject responses across all 3 treatment arms were evaluated based on screening tumor expression of proteins involved in the AKT-mTOR pathway. Other planned and post-hoc analyses were performed to assess influence of tumor histology (clear cell vs. non-clear cell), age (vs. >/=), and prognostic-risk groups (intermediate vs. poor).

[1] = patients <65yo, previously untreated advRCC, vs. αIFN
[2] = patients with clear-cell tumor histology
[3] = patients with other (non clear-cell) tumor histology
[4] = previously untreated clear-cell advRCC, vs. αIFN
[5] = previously untreated non clear-cell advRCC, TEMSR alone vs. αIFN

## CO[C@H]1C[C@@H]2CC[C@@H](C)[C@@](O)(O2)C(=O)C(=O)N2CCCC[C@H]2C(=O)O[C@H]([C@H](C)C[C@@H]2CC[C@@H](OC(=O)C(C)(CO)CO)[C@H](OC)C2)CC(=O)[C@H](C)/C=C(\C)[C@@H](O)[C@@H](OC)C(=O)[C@H](C)C[C@H](C)/C=C/C=C/C=C/1C [TEMSR, rapamycin 42-ester with 3-hydroxy-2-(hydroxymethyl)-2-methylpropionic acid]
Patients <65 years old
  OS hazard ratio, TEMSR vs. αIFN: 0.62 and 0.61
  PFS hazard ratio, TEMSR vs. αIFN: 0.61 and 0.62
[1]
  OS improved by: 64%
  PFS prolonged by: 61%
  reduction in risk of death: 39%
  risk of death or disease progression reduced by: 38%
Patients >/=65 years old
  difference in OS or PFS, TEMSR or αIFN: no difference
[2]
  OS HR, TEMSR:IFN: 0.82
  PFS HR, TEMSR:IFN: 0.76
  PFS median: 5.5 mo
  OS median: 10.7 mo
[3]
  OS HR, TEMSR:IFN: 0.49
  PFS HR, TEMSR:IFN: 0.38
  PFS median: 7.0 mo
  OS median: 11.6 mo
[4]
  OS improved by: 22%
  PFS prolonged by: 31%
  reduction in risk of death: 18%
  risk of death or disease progression reduced by: 24%
[5]
  OS improved by: 104%
  PFS prolonged by: 163%
  reduction in risk of death: 51%
  risk of death or disease progression reduced by: 62%
Stated for patients >/=65 years old
  side effect profile vs. αIFN: better side effect profile than αIFN
